The source of these data is the Kinase Knowledgebase extract (Sharma et al. 2016).

In the test the target is EGFR (human) (UniProt P00533).
EGFR (human), sequence (P00533 whole entry, looked up): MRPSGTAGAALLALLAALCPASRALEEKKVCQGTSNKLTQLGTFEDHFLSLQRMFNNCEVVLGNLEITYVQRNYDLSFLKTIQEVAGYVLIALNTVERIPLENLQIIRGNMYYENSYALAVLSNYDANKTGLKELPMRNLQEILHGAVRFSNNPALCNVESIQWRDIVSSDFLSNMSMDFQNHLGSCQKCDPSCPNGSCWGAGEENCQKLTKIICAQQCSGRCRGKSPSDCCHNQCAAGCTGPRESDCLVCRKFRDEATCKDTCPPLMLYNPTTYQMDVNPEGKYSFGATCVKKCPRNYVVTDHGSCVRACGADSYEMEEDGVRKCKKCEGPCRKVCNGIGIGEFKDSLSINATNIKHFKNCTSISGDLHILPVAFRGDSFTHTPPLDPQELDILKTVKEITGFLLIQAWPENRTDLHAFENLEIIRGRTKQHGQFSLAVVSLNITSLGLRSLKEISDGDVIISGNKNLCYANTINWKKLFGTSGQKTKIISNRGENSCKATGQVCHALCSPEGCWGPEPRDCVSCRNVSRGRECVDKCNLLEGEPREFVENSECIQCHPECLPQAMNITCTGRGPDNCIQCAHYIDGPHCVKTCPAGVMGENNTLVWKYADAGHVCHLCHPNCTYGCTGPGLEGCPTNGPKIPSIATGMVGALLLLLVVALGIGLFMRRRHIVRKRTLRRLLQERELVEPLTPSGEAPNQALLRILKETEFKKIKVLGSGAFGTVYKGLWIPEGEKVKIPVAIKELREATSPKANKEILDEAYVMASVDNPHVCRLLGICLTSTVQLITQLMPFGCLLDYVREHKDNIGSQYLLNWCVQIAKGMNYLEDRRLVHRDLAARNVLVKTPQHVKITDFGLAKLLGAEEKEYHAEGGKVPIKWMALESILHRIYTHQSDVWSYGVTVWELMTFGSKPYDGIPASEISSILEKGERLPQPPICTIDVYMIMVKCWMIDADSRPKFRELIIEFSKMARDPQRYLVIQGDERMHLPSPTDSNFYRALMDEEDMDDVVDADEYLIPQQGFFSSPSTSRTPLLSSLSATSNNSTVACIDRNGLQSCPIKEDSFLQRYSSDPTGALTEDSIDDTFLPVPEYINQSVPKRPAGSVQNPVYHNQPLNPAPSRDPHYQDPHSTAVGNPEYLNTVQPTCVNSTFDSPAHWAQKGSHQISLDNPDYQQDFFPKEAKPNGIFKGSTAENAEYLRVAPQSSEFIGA
`Fc1cccc(COc2ccc(Nc3ncnc4ccc(-n5cc(CN6CCCCC6)c(CN6CCCCC6)c5)cc34)cc2Cl)c1`: the concentration for half-maximal inhibition (IC50) is 291 nM.
Under `CN(C)Cc1cn(-c2ccc3ncnc(Nc4ccc(OCc5cccc(F)c5)c(Cl)c4)c3c2)cc1CCO` stands 39 nM.
`O=S1(=O)CCC(CNCc2cn(-c3ccc4ncnc(Nc5ccc6c(cnn6Cc6cccc(F)c6)c5)c4c3)cc2CCO)CC1` came in with a concentration for half-maximal inhibition (IC50) of 12 nM.
On to `O=C(NCCN1CCCCC1)c1cn(-c2ccc3ncnc(Nc4ccc5c(cnn5Cc5ccc(F)cc5)c4)c3c2)cc1CCO`, for which the IC50 amounted to 23 nM.
`OCCc1cn(-c2ccc3ncnc(Nc4ccc(OCc5ccccn5)c(Cl)c4)c3c2)cc1CN1CCOCC1` registered a half-inhibitory concentration (IC50) of 22 nM.
With `Fc1cccc(COc2ccc(Nc3ncnc4ccc(-n5cc(CNCCN6CCCCC6)c(C(F)(F)F)c5)cc34)cc2Cl)c1`, the IC50 is 10 nM.
In turn, `O=S1(=O)CCC(CNCC(O)Cn2ccc(-c3ccc4ncnc(Nc5ccc(OCc6cccc(F)c6)c(Cl)c5)c4c3)c2)CC1` (configuration not stated) displayed an IC50 of 42 nM.
In turn, `CS(=O)(=O)CCNCc1cn(-c2ccc3ncnc(Nc4ccc(OCc5cccc(F)c5)c(Cl)c4)c3c2)cc1CCO` displayed an IC50 of 11 nM.
Turning to `O=C(Cn1ccc(-c2ccc3ncnc(Nc4ccc(OCc5cccc(F)c5)c(Cl)c4)c3c2)c1)NC1CCNCC1`, the 50% inhibitory concentration (IC50) was determined as 34 nM.
`Fc1cccc(COc2ccc(Nc3ncnc4ccc(-c5c[nH]c(CN6CCC(N7CCCCC7)CC6)c5)cc34)cc2Cl)c1` came in with an IC50 of 66 nM.
As to `OC1(Cn2ccc(-c3ccc4ncnc(Nc5ccc(OCc6cccc(F)c6)c(Cl)c5)c4c3)c2)CCNCC1`, the IC50 amounted to 12 nM.
The compound `O=C1CCc2cn(-c3ccc4ncnc(Nc5ccc(OCc6cccc(F)c6)c(Cl)c5)c4c3)cc21` returned an IC50 of 2 nM.
For `O=C(c1cn(-c2ccc3ncnc(Nc4ccc(OCc5ccccn5)c(Cl)c4)c3c2)cc1CCO)N1CCC(N2CCCCC2)CC1` the value was 105 nM.
`O=C(c1cn(-c2ccc3ncnc(Nc4ccc(OCc5ccccn5)c(Cl)c4)c3c2)cc1CCO)N1CCCCC1` came in with an IC50 of 95 nM.
Compound `CCN(CC)CCNCc1cn(-c2ccc3ncnc(Nc4ccc(OCc5cccc(F)c5)c(Cl)c4)c3c2)cc1C(F)(F)F` had an IC50 of 53 nM.
Compound `COCCNCc1cc(-c2ccc3ncnc(Nc4ccc(OCc5cccc(F)c5)c(Cl)c4)c3c2)c[nH]1` returned a half-maximal inhibitory concentration (IC50) of 31 nM.
In turn, `Fc1cccc(COc2ccc(Nc3ncnc4ccc(-c5c[nH]c(CNCCN6CCOCC6)c5)cc34)cc2Cl)c1` registered an IC50 of 102 nM.
As for `Fc1ccc(Nc2ncnc3ccc(-c4cc[nH]c4)cc23)cc1Cl`, the IC50 amounted to 47 nM.
Take `COCCc1cn(-c2ccc3ncnc(Nc4ccc(OCc5cccc(F)c5)c(Cl)c4)c3c2)cc1C(=O)N1CCOCC1`: the IC50 is 72 nM.
As to `CN(C)CC=CC(=O)Nc1cn(-c2ccc3ncnc(Nc4ccc(OCc5cccc(F)c5)c(Cl)c4)c3c2)cc1C(F)(F)F`, the IC50 worked out at 276 nM.
For `OC(CN1CCNCC1)Cn1ccc(-c2ccc3ncnc(Nc4ccc(OCc5cccc(F)c5)c(Cl)c4)c3c2)c1` (configuration not stated) the value was 30 nM; for `O=C(c1cn(-c2ccc3ncnc(Nc4ccc5c(cnn5Cc5ccc(F)cc5)c4)c3c2)cc1CCO)N1CCOCC1`, 50 nM; for `O=C(NCCN1CCCCC1)c1cn(-c2ccc3ncnc(Nc4ccc(OCc5cccc(F)c5)c(Cl)c4)c3c2)cc1CCO`, 8 nM.
As to `OCC1CCCN1CCn1ccc(-c2ccc3ncnc(Nc4ccc(OCc5cccc(F)c5)c(Cl)c4)c3c2)c1` (configuration not stated), the IC50 was determined as 60 nM.
For the compound `CCOC(=O)c1cn(-c2ccc3ncnc(Nc4ccc(OCc5cccc(F)c5)c(Cl)c4)c3c2)cc1C(F)(F)F`, the IC50 amounted to 31 nM.
The compound `O=C(Cn1ccc(-c2ccc3ncnc(Nc4ccc(OCc5cccc(F)c5)c(Cl)c4)c3c2)c1)N1CCCCC1` displayed a 50% inhibitory concentration (IC50) of 66 nM.
The compound `O=S1(=O)CCC(O)(CNCc2cn(-c3ccc4ncnc(Nc5ccc(OCc6cccc(F)c6)c(Cl)c5)c4c3)cc2C(F)(F)F)CC1` showed an IC50 of 16 nM.
For `CN(C)CCc1cn(-c2ccc3ncnc(Nc4ccc(OCc5cccc(F)c5)c(Cl)c4)c3c2)cc1C(=O)N1CCOCC1` the value was 57 nM.
For `Fc1cccc(COc2ccc(Nc3ncnc4ccc(-c5ccn(C[C@H]6CCNC6)c5)cc34)cc2Cl)c1` the value was 638 nM; for `Fc1cccc(Cn2ncc3cc(Nc4ncnc5ccc(-c6cc[nH]c6)cc45)ccc32)c1`, 3 nM; for `CS(=O)(=O)CCNC(=O)c1cc(-c2ccc3ncnc(Nc4ccc(OCc5cccc(F)c5)c(Cl)c4)c3c2)c[nH]1`, 24 nM.
`O[C@@H](CNCc1cn(-c2ccc3ncnc(Nc4ccc(OCc5cccc(F)c5)c(Cl)c4)c3c2)cc1C(F)(F)F)CN1CCOCC1` had an IC50 of 91 nM.
`O=C(NCCCN1CCOCC1)c1cn(-c2ccc3ncnc(Nc4ccc(OCc5ccccn5)c(Cl)c4)c3c2)cc1CCO` gave an IC50 of 96 nM.
`C=C(C)C(=O)Nc1cn(-c2ccc3ncnc(Nc4ccc(OCc5cccc(F)c5)c(Cl)c4)c3c2)cc1C(F)(F)F`: the half-maximal inhibitory concentration (IC50) was 5 nM.
In turn, `CC(C)(C)OC(=O)N1CCC(NCc2cc(-c3ccc4ncnc(Nc5ccc(OCc6cccc(F)c6)c(Cl)c5)c4c3)c[nH]2)CC1` yielded an IC50 of 470 nM.
In turn, `OCCc1cn(-c2ccc3ncnc(Nc4ccc(OCc5cccc(F)c5)c(Cl)c4)c3c2)cc1CNCCN1CCOCC1` gave an IC50 of 71 nM.
`Fc1cccc(COc2ccc(Nc3ncnc4ccc(-n5cc(CNCCN6CCOCC6)c(C(F)(F)F)c5)cc34)cc2Cl)c1` showed an IC50 of 32 nM.
Compound `O=S1(=O)CCC(O)(CNCc2cn(-c3ccc4ncnc(Nc5ccc(F)c(Cl)c5)c4c3)cc2CCO)CC1` gave an IC50 of 76 nM.
`CN(C)Cc1cn(-c2ccc3ncnc(Nc4ccc5c(cnn5Cc5cccc(F)c5)c4)c3c2)cc1CCO` returned a half-inhibitory concentration (IC50) of 15 nM.
For `OC1CCC(NCC(O)Cn2ccc(-c3ccc4ncnc(Nc5ccc(OCc6cccc(F)c6)c(Cl)c5)c4c3)c2)CC1` (configuration not stated) the value was 49 nM.
Under `CCN(CC)Cc1cn(-c2ccc3ncnc(Nc4ccc(OCc5cccc(F)c5)c(Cl)c4)c3c2)cc1CCO` stands 37 nM.
`CC(C)(C)OC(=O)n1cccc1-c1ccc2ncnc(Nc3ccc(OCc4cccc(F)c4)c(Cl)c3)c2c1`: the IC50 stood at 28 nM.
For `CCN(CC)CCc1cn(-c2ccc3ncnc(Nc4ccc(OCc5cccc(F)c5)c(Cl)c4)c3c2)cc1C(=O)N1CCOCC1` the value was 15 nM.
The compound `O=C(NCCN1CCCC1)c1cn(-c2ccc3ncnc(Nc4ccc5c(cnn5Cc5ccc(F)cc5)c4)c3c2)cc1CCO` registered an IC50 of 16 nM.
Compound `O=C(c1cn(-c2ccc3ncnc(Nc4ccc(OCc5ccccn5)c(Cl)c4)c3c2)cc1CCO)N1CCCC1` came in with a half-maximal inhibitory concentration (IC50) of 30 nM.
As to `COCCNCC(O)Cn1ccc(-c2ccc3ncnc(Nc4ccc(OCc5cccc(F)c5)c(Cl)c4)c3c2)c1` (configuration not stated), the 50% inhibitory concentration (IC50) was determined as 11 nM.
`CN1CCN(Cc2cn(-c3ccc4ncnc(Nc5ccc(OCc6cccc(F)c6)c(Cl)c5)c4c3)cc2CCO)CC1` came in with an IC50 of 42 nM.
`CS(=O)(=O)CCNCc1cn(-c2ccc3ncnc(Nc4ccc(OCc5ccccn5)c(Cl)c4)c3c2)cc1CCO` displayed an IC50 of 16 nM.
The compound `CCN(CC)C(=O)Cn1ccc(-c2ccc3ncnc(Nc4ccc(OCc5cccc(F)c5)c(Cl)c4)c3c2)c1` showed an IC50 of 140 nM.
On to `CS(=O)(=O)CCNCc1cc(-c2ccc3ncnc(Nc4ccc5c(cnn5Cc5cccc(F)c5)c4)c3c2)c[nH]1`, for which the IC50 came to 4 nM.
The compound `O=S1(=O)CCC(O)(CNCc2cn(-c3ccc4ncnc(Nc5ccc(OCc6cccc(F)c6)c(Cl)c5)c4c3)cc2CCO)CC1` gave an IC50 of 19 nM.
The compound `CCN(CC)Cc1cn(-c2ccc3ncnc(Nc4ccc(OCc5cccc(F)c5)c(Cl)c4)c3c2)cc1CN(CC)CC` had an IC50 of 127 nM.
In the case of `O=C(Cn1ccc(-c2ccc3ncnc(Nc4ccc(OCc5cccc(F)c5)c(Cl)c4)c3c2)c1)NC1CC1`, the IC50 was determined as 13 nM.
As to `Fc1cccc(COc2ccc(Nc3ncnc4ccc(-n5cc(CN6CCOCC6)c(CN6CCOCC6)c5)cc34)cc2Cl)c1`, the IC50 worked out at 376 nM.
Compound `O=S1(=O)CCC(CNCc2cn(-c3ccc4ncnc(Nc5ccc(OCc6cccc(F)c6)c(Cl)c5)c4c3)cc2CCO)CC1` yielded a 50% inhibitory concentration (IC50) of 24 nM.
On to `Fc1cccc(COc2ccc(Nc3ncnc4ccc(-c5ccn(CCN6CCNCC6)c5)cc34)cc2Cl)c1`, for which the IC50 worked out at 2 nM.
For `O=C(NCCCN1CCOCC1)c1cn(-c2ccc3ncnc(Nc4ccc5c(cnn5Cc5ccc(F)cc5)c4)c3c2)cc1CCO` the value was 115 nM.
Under `Fc1cccc(COc2ccc(Nc3ncnc4ccc(-c5ccn(CCOC6CCCCO6)c5)cc34)cc2Cl)c1` (configuration not stated) stands 131 nM; under `OC(CN1CCOCC1)Cn1ccc(-c2ccc3ncnc(Nc4ccc(OCc5cccc(F)c5)c(Cl)c4)c3c2)c1` (configuration not stated), 12 nM.
`CS(=O)(=O)CCNCc1cn(-c2ccc3ncnc(Nc4ccc5c(cnn5Cc5cccc(F)c5)c4)c3c2)cc1CCO` registered an IC50 of 25 nM.
On to `O=S1(=O)CCC(CNCc2cn(-c3ccc4ncnc(Nc5ccc(F)c(Cl)c5)c4c3)cc2CCO)CC1`, for which the IC50 came to 127 nM.
For `CCN(CC)CCON=C1CCc2cn(-c3ccc4ncnc(Nc5ccc(OCc6cccc(F)c6)c(Cl)c5)c4c3)cc21` the value was 72 nM.
With `CN(C)Cc1cn(-c2ccc3ncnc(Nc4ccc(OCc5cccc(F)c5)c(Cl)c4)c3c2)cc1CN(C)C`, the IC50 came to 56 nM.
For `Fc1cccc(COc2ccc(Nc3ncnc4ccc(-c5c[nH]c(CNCCCN6CCOCC6)c5)cc34)cc2Cl)c1` the value was 197 nM; for `O=C(c1cn(-c2ccc3ncnc(Nc4ccc(OCc5cccc(F)c5)c(Cl)c4)c3c2)cc1CCN1CCOCC1)N1CCOCC1`, 25 nM.
In turn, `CS(=O)(=O)CCNCC(O)Cn1ccc(-c2ccc3ncnc(Nc4ccc(OCc5cccc(F)c5)c(Cl)c4)c3c2)c1` (configuration not stated) gave an IC50 of 17 nM.
For `CS(=O)(=O)CCNCc1cn(-c2ccc3ncnc(Nc4ccc(F)c(Cl)c4)c3c2)cc1CCO` the value was 65 nM; for `CN1CCN(C(=O)c2cn(-c3ccc4ncnc(Nc5ccc6c(cnn6Cc6ccc(F)cc6)c5)c4c3)cc2CCO)CC1`, 62 nM; for `Fc1cccc(COc2ccc(Nc3ncnc4ccc(-c5ccn(CCN6CCOCC6)c5)cc34)cc2Cl)c1`, 40 nM.
Regarding `CCN(CC)Cc1cn(-c2ccc3ncnc(Nc4ccc(OCc5ccccn5)c(Cl)c4)c3c2)cc1CCO`, the IC50 was 21 nM.
The compound `OC(CNCCN1CCCCC1)Cn1ccc(-c2ccc3ncnc(Nc4ccc(OCc5cccc(F)c5)c(Cl)c4)c3c2)c1` (configuration not stated) displayed an IC50 of 92 nM.
`CS(=O)(=O)n1ccc(-c2ccc3ncnc(Nc4ccc(OCc5cccc(F)c5)c(Cl)c4)c3c2)c1` registered an IC50 of 14 nM.

The term IC50 denotes the point on the concentration scale where inhibition reaches its midpoint. Low values mean inhibition by little substance, high ones a need for much substance.
